Values of other authors, collected in publication PMC2965246 (Nucleic Acids Research, 2010).

System: GRPR
Conditions: reported value

bombesin [BBN]
binding affinity to the GRPR: 79 nM
